{"source": "patent US10053456B2", "about": "“Cyclopropanamine compound and use thereof” (Takeda Pharmaceutical Company Limited, priority 2014, dated 2018)", "system": "Gad1 H3K4me2 level in rat primary culture neurons", "assay": "Gad1 H3K4 methylation induction activity in rat primary culture neurons (ChIP, quantitative PCR)", "assay_type": "cell-based", "conditions": "Neuron, 72 h, 3 days culture, control without compound = 100%", "note": "Structures can show the parent of a compound that is named as a salt."}
{"molecule": "Cc1nnc(NC(=O)c2cc([C@@H]3C[C@H]3NC3CCC3)cs2)s1", "note": "[Example 118, 4-((1S,2R)-2-(cyclobutylamino)cyclopropyl)-N-(5-methyl-1,3,4-thiadiazol-2-yl)thiophene-2-carboxamide sulfate]", "values": [{"measurement": "activity at 10 µM", "result": 233, "unit": "%"}]}
